Molecular target: T1, human NaV 1.8 (Homo sapiens, UniProt Q9Y5Y9)
T1 construct: expressed in transfected cells; host or cells: HEK (recombinant cell line)
Assay: Automated whole-cell patch clamp (Qube384) voltage-clamp recordings of sodium currents in HEK-NaV1.8 cell line
Type: cell-based
Conditions: read-out: Potency category (human NaV 1.8 IC50)
In short: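 HEK cells expressing NaV1.8 with b3, whole-cell automated voltage clamp at room temperature or 19° C.; CsF-based internal, pH 7.4 external. State-dependent (−120 mV, V1/2 4 s, −10 mV test pulses) and 10/20 Hz 40-pulse protocols; ~12 min compound, vehicle-corrected, IC50 by 4-parameter logistic fit.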

T1 sequence (Q9Y5Y9 whole entry): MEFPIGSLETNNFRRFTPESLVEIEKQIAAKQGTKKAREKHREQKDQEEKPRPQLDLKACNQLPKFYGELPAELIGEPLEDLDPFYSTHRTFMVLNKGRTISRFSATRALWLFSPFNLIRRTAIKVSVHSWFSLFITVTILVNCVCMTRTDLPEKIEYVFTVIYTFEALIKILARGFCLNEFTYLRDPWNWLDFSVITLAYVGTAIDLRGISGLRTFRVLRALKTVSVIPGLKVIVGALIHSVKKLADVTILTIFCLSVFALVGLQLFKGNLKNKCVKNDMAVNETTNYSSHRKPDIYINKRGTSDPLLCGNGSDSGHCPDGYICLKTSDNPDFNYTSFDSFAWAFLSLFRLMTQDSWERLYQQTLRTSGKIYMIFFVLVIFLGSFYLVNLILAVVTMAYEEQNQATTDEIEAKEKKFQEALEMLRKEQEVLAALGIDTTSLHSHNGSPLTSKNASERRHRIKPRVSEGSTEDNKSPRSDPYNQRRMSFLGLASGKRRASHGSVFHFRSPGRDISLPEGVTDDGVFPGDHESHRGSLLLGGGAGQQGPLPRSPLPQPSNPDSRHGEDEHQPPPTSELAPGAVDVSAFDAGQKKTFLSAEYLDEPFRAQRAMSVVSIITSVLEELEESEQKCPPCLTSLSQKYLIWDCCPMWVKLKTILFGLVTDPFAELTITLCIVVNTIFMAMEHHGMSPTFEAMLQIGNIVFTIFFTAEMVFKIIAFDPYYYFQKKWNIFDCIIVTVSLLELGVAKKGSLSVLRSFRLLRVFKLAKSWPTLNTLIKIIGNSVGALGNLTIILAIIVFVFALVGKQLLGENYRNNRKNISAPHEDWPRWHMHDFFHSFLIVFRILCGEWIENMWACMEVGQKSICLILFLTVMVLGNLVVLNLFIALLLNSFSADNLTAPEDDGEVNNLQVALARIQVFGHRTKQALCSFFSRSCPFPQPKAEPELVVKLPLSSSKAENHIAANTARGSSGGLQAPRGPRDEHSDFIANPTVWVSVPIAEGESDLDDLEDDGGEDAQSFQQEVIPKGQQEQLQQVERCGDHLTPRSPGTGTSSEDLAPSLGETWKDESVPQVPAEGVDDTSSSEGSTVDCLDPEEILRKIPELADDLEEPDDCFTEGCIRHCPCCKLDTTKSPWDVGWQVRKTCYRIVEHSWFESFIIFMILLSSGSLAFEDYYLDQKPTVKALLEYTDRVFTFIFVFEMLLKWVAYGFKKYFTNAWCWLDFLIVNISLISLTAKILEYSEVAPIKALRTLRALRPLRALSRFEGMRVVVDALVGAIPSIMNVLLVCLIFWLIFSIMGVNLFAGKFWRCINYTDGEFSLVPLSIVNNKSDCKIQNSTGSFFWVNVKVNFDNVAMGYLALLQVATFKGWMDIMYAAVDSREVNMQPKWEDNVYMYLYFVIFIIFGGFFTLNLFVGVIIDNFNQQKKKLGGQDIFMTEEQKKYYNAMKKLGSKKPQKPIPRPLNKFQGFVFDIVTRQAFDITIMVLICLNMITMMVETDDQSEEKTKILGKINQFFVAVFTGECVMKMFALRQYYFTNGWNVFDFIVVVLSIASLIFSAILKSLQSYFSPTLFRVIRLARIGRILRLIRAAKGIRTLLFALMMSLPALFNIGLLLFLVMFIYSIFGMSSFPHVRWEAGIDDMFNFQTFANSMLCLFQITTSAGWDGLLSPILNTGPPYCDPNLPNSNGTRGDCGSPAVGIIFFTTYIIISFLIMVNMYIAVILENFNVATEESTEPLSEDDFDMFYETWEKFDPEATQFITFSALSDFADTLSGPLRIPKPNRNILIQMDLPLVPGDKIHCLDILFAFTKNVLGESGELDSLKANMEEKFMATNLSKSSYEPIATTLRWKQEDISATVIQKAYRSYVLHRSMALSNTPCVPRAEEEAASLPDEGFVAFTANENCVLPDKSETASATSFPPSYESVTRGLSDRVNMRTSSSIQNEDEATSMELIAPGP

Row | Compound | IC50
1 | CS(=N)(=O)c1cc(NC(=O)c2c(C(F)(F)F)c(C3CC3)nn2CC2CCC(F)(F)C2)ccn1 (single isomer, unassigned) [Example 7a, 3-cyclopropyl-1-((3,3-difluorocyclopentyl)methyl)-N-(2-(S-methylsulfonimidoyl)pyridin-4-yl)-4-(trifluoromethyl)-1H-pyrazole-5-carboxamide] | ≤ 100 nM
2 | CS(=N)(=O)c1cc(NC(=O)c2c(C(F)(F)F)c(C3CC3)nn2CC2C(F)(F)C23CCC3)ccn1 (single isomer, unassigned) [Example 136d, 3-Cyclopropyl-1-((2,2-difluorospiro[2.3]hexan-1-yl)methyl)-N-(2-(S-methylsulfonimidoyl)pyridin-4-yl)-4-(trifluoromethyl)-1H-pyrazole-5-carboxamide] | ≤ 100 nM
3 | C[S@](=N)(=O)c1cc(NC(=O)c2c(C(F)(F)F)c(C3CC3)nn2C[C@H]2CC23CC3)ccn1 (single isomer, unassigned) [Example 78d, 3-cyclopropyl-N-(2-(S-methylsulfonimidoyl)pyridin-4-yl)-1-(spiro[2.2]pentan-1-ylmethyl)-4-(trifluoromethyl)-1H-pyrazole-5-carboxamide] | ≤ 100 nM
4 | Cc1c(C(C)(F)F)nn(CC2CCC(F)(F)C2)c1C(=O)Nc1ccnc(S(C)(=N)=O)c1 (centres unmarked) [Example 4, 1-((3,3-Difluorocyclopentyl)methyl)-3-(1,1-difluoroethyl)-4-methyl-N-(2-(S-methylsulfonimidoyl)pyridin-4-yl)-1H-pyrazole-5-carboxamide] | ≤ 100 nM
5 | CC1(Cn2nc(C3CC34CC4)c(C(F)(F)F)c2C(=O)Nc2ccnc(S(C)(=N)=O)c2)CC(F)(F)C1 (single isomer, unassigned) [Example 64a, 1-((3,3-difluoro-1-methylcyclobutyl)methyl)-N-(2-(S-methylsulfonimidoyl)pyridin-4-yl)-3-(spiro[2.2]pentan-1-yl)-4-(trifluoromethyl)-1H-pyrazole-5-carboxamide] | ≤ 100 nM
6 | Cc1c(C(C)(F)F)nn(CC2CCC(F)(F)CC2)c1C(=O)Nc1ccnc(S(C)(=N)=O)c1 (single isomer, unassigned) [Example 9b, 1-((4,4-difluorocyclohexyl)methyl)-3-(1,1-difluoroethyl)-4-methyl-N-(2-(S-methylsulfonimidoyl)pyridin-4-yl)-1H-pyrazole-5-carboxamide] | ≤ 100 nM
7 | CCS(=N)(=O)c1cc(NC(=O)c2c(C(F)(F)F)c(C3CC3)nn2CC2(C)CC(F)(F)C2)ccn1 (single isomer, unassigned) [Example 48a, 3-cyclopropyl-1-((3,3-difluoro-1-methylcyclobutyl)methyl)-N-(2-(ethylsulfonimidoyl)pyridin-4-yl)-4-(trifluoromethyl)-1H-pyrazole-5-carboxamide] | ≤ 100 nM
8 | CC1(Cn2nc(C(C)(F)F)c(C(F)(F)F)c2C(=O)Nc2ccnc(S(C)(=N)=O)c2)CC(F)(F)C1 (single isomer, unassigned) [Example 75b, 1-((3,3-difluoro-1-methylcyclobutyl)methyl)-3-(1,1-difluoroethyl)-N-(2-(S-methylsulfonimidoyl)pyridin-4-yl)-4-(trifluoromethyl)-1H-pyrazole-5-carboxamide] | ≤ 100 nM
9 | CS(=N)(=O)c1cc(NC(=O)c2c(C(F)(F)F)c(C3CC3)nn2CC2CC3(C2)CC(F)(F)C3)ccn1 (single isomer, unassigned) [Example 27a, 3-cyclopropyl-1-((6,6-difluorospiro[3.3]heptan-2-yl)methyl)-N-(2-(S-methylsulfonimidoyl)pyridin-4-yl)-4-(trifluoromethyl)-1H-pyrazole-5-carboxamide] | ≤ 100 nM
10 | CC1(Cn2nc(C3CC3)c(C(F)(F)F)c2C(=O)Nc2cnnc(S(C)(=N)=O)c2)CC(F)(F)C1 (single isomer, unassigned) [Example 47b, 3-cyclopropyl-1-((3,3-difluoro-1-methylcyclobutyl)methyl)-N-(6-(S-methylsulfonimidoyl)pyridazin-4-yl)-4-(trifluoromethyl)-1H-pyrazole-5-carboxamide] | ≤ 100 nM
11 | C[C@]1(Cn2nc(C3CC3)c(C(F)(F)F)c2C(=O)Nc2ccnc([S@@](C)(=N)=O)c2)CC(F)(F)C12CC2 (single isomer, unassigned) [Example 92b, 3-cyclopropyl-1-((6,6-difluoro-4-methylspiro[2.3]hexan-4-yl)methyl)-N-(2-(S-methylsulfonimidoyl)pyridin-4-yl)-4-(trifluoromethyl)-1H-pyrazole-5-carboxamide] | ≤ 100 nM
12 | CC1(Cn2nc(C(C)(C)F)c(C(F)(F)F)c2C(=O)Nc2ccnc(S(C)(=N)=O)c2)CC(F)(F)C1 (single isomer, unassigned) [Example 148b, 1-((3,3-Difluoro-1-methylcyclobutyl)methyl)-3-(2-fluoropropan-2-yl)-N-(2-(S-methylsulfonimidoyl)pyridin-4-yl)-4-(trifluoromethyl)-1H-pyrazole-5-carboxamide] | ≤ 100 nM

Further lines, results first:

Row | IC50 | Compound
13 | ≤ 100 nM | CC1(Cn2nc(C34CC(F)(C3)C4)c(C(F)(F)F)c2C(=O)Nc2ccc(F)c(S(C)(=N)=O)c2)CC(F)(F)C1 (single isomer, unassigned) [Example 141b, 1-((3,3-Difluoro-1-methylcyclobutyl)methyl)-N-(4-fluoro-3-(S-methylsulfonimidoyl)phenyl)-3-(3-fluorobicyclo[1.1.1]pentan-1-yl)-4-(trifluoromethyl)-1H-pyrazole-5-carboxamide]
14 | ≤ 100 nM | CC1(Cn2nc(C34CC(F)(C3)C4)c(C(F)(F)F)c2C(=O)Nc2ccnc(S(C)(=N)=O)c2)CC(F)(F)C1 (single isomer, unassigned) [Example 110b, 1-((3,3-Difluoro-1-methylcyclobutyl)methyl)-3-(3-fluorobicyclo[1.1.1]pentan-1-yl)-N-(2-(S-methylsulfonimidoyl)pyridin-4-yl)-4-(trifluoromethyl)-1H-pyrazole-5-carboxamide]
15 | ≤ 100 nM | CC1(Cn2nc(C3(F)CC3)c(C(F)(F)F)c2C(=O)Nc2cccc(S(=N)(=O)C(F)F)c2)CC(F)(F)C1 (single isomer, unassigned) [Example 130b, 1-((3,3-Difluoro-1-methylcyclobutyl)methyl)-N-(3-(S-(difluoromethyl)sulfonimidoyl)phenyl)-3-(1-fluorocyclopropyl)-4-(trifluoromethyl)-1H-pyrazole-5-carboxamide]
16 | ≤ 100 nM | CC1(Cn2nc(C34CC(F)(C3)C4)c(C(F)(F)F)c2C(=O)Nc2cccc(S(C)(=N)=O)c2)CC(F)(F)C1 (single isomer, unassigned) [Example 111a, 1-((3,3-difluoro-1-methylcyclobutyl)methyl)-3-(3-fluorobicyclo[1.1.1]pentan-1-yl)-N-(3-(S-methylsulfonimidoyl)phenyl)-4-(trifluoromethyl)-1H-pyrazole-5-carboxamide]
17 | ≤ 100 nM | CC1(Cn2nc(C3CC3)c(C(F)(F)F)c2C(=O)Nc2cccc(S(C)(=N)=O)c2)CC(F)(F)C1 (single isomer, unassigned) [Example 45a, 3-cyclopropyl-1-((3,3-difluoro-1-methylcyclobutyl)methyl)-N-(3-(S-methylsulfonimidoyl)phenyl)-4-(trifluoromethyl)-1H-pyrazole-5-carboxamide]
18 | ≤ 100 nM | CC1(Cn2nc(C3(F)CC3)c(C(F)F)c2C(=O)Nc2cccc(S(C)(=N)=O)c2)CC(F)(F)C1 (single isomer, unassigned) [Example 135b, 1-((3,3-Difluoro-1-methylcyclobutyl)methyl)-4-(difluoromethyl)-3-(1-fluorocyclopropyl)-N-(3-(S-methylsulfonimidoyl)phenyl)-1H-pyrazole-5-carboxamide]
19 | ≤ 100 nM | CC1(Cn2nc(C3(C(F)(F)F)CC3)c(C(F)(F)F)c2C(=O)Nc2ccnc(S(C)(=N)=O)c2)CC(F)(F)C1 (single isomer, unassigned) [Example 144a, 1-((3,3-Difluoro-1-methylcyclobutyl)methyl)-N-(2-(S-methylsulfonimidoyl)pyridin-4-yl)-4-(trifluoromethyl)-3-(1-(trifluoromethyl)cyclopropyl)-1H-pyrazole-5-carboxamide]
20 | ≤ 100 nM | CC1(Cn2nc(C3(C)CC3)c(C(F)(F)F)c2C(=O)Nc2ccnc(S(C)(=N)=O)c2)CC(F)(F)C1 (single isomer, unassigned) [Example 69b, 1-((3,3-difluoro-1-methylcyclobutyl)methyl)-3-(1-methylcyclopropyl)-N-(2-(S-methylsulfonimidoyl)pyridin-4-yl)-4-(trifluoromethyl)-1H-pyrazole-5-carboxamide]
21 | ≤ 100 nM | CC1(Cn2nc(C34CC(C3)C4(F)F)c(C(F)(F)F)c2C(=O)Nc2ccnc(S(C)(=N)=O)c2)CC(F)(F)C1 (single isomer, unassigned) [Example 114, 1-((3,3-Difluoro-1-methylcyclobutyl)methyl)-3-(2,2-difluorobicyclo[1.1.1]pentan-1-yl)-N-(2-(S-methylsulfonimidoyl)pyridin-4-yl)-4-(trifluoromethyl)-1H-pyrazole-5-carboxamide]
22 | ≤ 100 nM | CC1(Cn2nc(C3(C#N)CC3)c(C(F)(F)F)c2C(=O)Nc2ccnc(S(C)(=N)=O)c2)CC(F)(F)C1 (single isomer, unassigned) [Example 68b, 3-(1-cyanocyclopropyl)-1-((3,3-difluoro-1-methylcyclobutyl)methyl)-N-(2-(S-methylsulfonimidoyl)pyridin-4-yl)-4-(trifluoromethyl)-1H-pyrazole-5-carboxamide]
23 | ≤ 100 nM | C[S@](=N)(=O)c1cccc(NC(=O)c2c(C(F)(F)F)c(C3(F)CC3)nn2CC2C[C@@H]2C(F)(F)F)c1 (single isomer, unassigned) [Example 134b, 3-(1-Fluorocyclopropyl)-N-(3-(S-methylsulfonimidoyl)phenyl)-4-(trifluoromethyl)-1-(((trans)-2-(trifluoromethyl)cyclopropyl)methyl)-1H-pyrazole-5-carboxamide]

From patent US12685726B2, “Sulfoximines as inhibitors of NaV1.8” (Gruenenthal GmbH, priority 2022, dated 2026)
